Laboratory results: ChEMBL document CHEMBL1125860 (J Med Chem, 1991)
Each block holds one compound with its values, some of them ahead of it. Calls of active or inactive are those of the source. The rule behind the calls is not given here.

How the values were obtained:
Rattus norvegicus [1] = species on record: Rattus norvegicus; assay: Inhibition of aldose reductase activity was measured by measuring […] in the sciatic nerves of galactose fed rat.; assay type: functional; details: Sciatic nerve
Rattus norvegicus [2] = species on record: Rattus norvegicus; assay: Inhibition of galactitol accumulation in sciatic nerves of rat incubated in presence of 50 mM glucose.; assay type: functional, organism-based; details: Sciatic nerve
Rattus norvegicus [3] = species on record: Rattus norvegicus; assay: (§1) In vitro inhibition of sorbitol accumulation was measured in rat sciatic nerves incubated in the presence of 50 mM glucose at 10e-5 M concentration; assay type: functional, Sciatic nerve
Rattus norvegicus [4] = assay: In vivo inhibition of galactitol accumulation in sciatic nerves of rat at 10 mg/kg/day; assay type: functional; details: Sciatic nerve
[5] = target: Aldo-keto reductase family 1 member B1 (Bos taurus) (UniProt P16116); assay: In vitro % decrease of aldose reductase measured in isolated partially purified bovine lens preparations at 10e-7 M concentration
[6] = target: Aldo-keto reductase family 1 member B1 (Bos taurus, UniProt P16116); assay: Inhibition of aldose reductase activity was measured on partially purified bovine lens preparations incubated in presence of 50 mM glucose.
Rattus norvegicus [7] = species on record: Rattus norvegicus; assay: Inhibition of aldose reductase activity was measured by measuring […] in the RBC of galactose fed rat.; assay type: functional
Rattus norvegicus [8] = species on record: Rattus norvegicus; assay: Inhibition of galactitol accumulation in rat lens incubated in presence of 50 mM glucose; assay type: functional, organism-based; details: Lens of camera-type eye
Rattus norvegicus [9] = species on record: Rattus norvegicus; assay: Inhibition of aldose reductase activity was measured by measuring sorbitor accumulation in the sciatic nerves of STZ diabetic rat.; assay type: functional; details: Sciatic nerve
Rattus norvegicus [10] = assay: In vivo inhibition of galactitol accumulation in sciatic nerves of rat at 5 mg/kg/day; assay type: functional; details: Sciatic nerve
Rattus norvegicus [11] = assay: In vivo inhibition of galactitol accumulation in diaphragm of rat at 10 mg/kg/day; assay type: functional
Rattus norvegicus [12] = species on record: Rattus norvegicus; assay: Inhibition of galactitol accumulation in rat RBC incubated in presence of 50 mM glucose; assay type: functional, organism-based
Rattus norvegicus [13] = assay: In vivo inhibition of galactitol accumulation in diaphragm of rat at 5 mg/kg/day; assay type: functional
Rattus norvegicus [14] = species on record: Rattus norvegicus; assay: (§2) In vitro inhibition of sorbitol accumulation was measured in rat sciatic nerves incubated in the presence of 50 mM glucose at 10e-6 M concentration; assay type: functional, Sciatic nerve
Rattus norvegicus [15] = assay: In vivo inhibition of galactitol accumulation in sciatic nerves of rat at 94 mg/kg/day; Not significant; assay type: functional, organism-based; details: Sciatic nerve
Rattus norvegicus [16] = assay: In vivo inhibition of galactitol accumulation in diaphragm of rat at 94 mg/kg/day; assay type: functional
Rattus norvegicus [17] = assay: In vivo inhibition of galactitol accumulation in diaphragm of rat at 53 mg/kg/day; Not significant; assay type: functional, organism-based
Rattus norvegicus [18] = assay: In vivo inhibition of galactitol accumulation in sciatic nerves of rat at 53 mg/kg/day; Not significant; assay type: functional, organism-based; details: Sciatic nerve
Rattus norvegicus [19] = assay: In vivo inhibition of galactitol accumulation in sciatic nerves of rat at 6 mg/kg/day; assay type: functional; details: Sciatic nerve
Rattus norvegicus [20] = assay: In vivo inhibition of galactitol accumulation in diaphragm of rat at 6 mg/kg/day; assay type: functional
Rattus norvegicus [21] = species on record: Rattus norvegicus; assay: inhibition of aldose reductase activity was measured by measuring […] in the RBC of galactose fed rat.; assay type: functional
Rattus norvegicus [22] = species on record: Rattus norvegicus; assay: inhibition of aldose reductase activity was measured by measuring sorbitor accumulation in the sciatic nerves of STZ diabetic rat.; assay type: functional; details: Sciatic nerve
Rattus norvegicus [23] = species on record: Rattus norvegicus; assay: inhibition of aldose reductase activity was measured by measuring […] in the sciatic nerves of galactose fed rat.; assay type: functional; details: Sciatic nerve
Rattus norvegicus [24] = assay: In vivo inhibition of galactitol accumulation in diaphragm of rat at 18 mg/kg/day; assay type: functional
Rattus norvegicus [25] = assay: In vivo inhibition of galactitol accumulation in sciatic nerves of rat at 18 mg/kg; assay type: functional; details: Sciatic nerve
Rattus norvegicus [26] = assay: In vivo inhibition of galactitol accumulation in sciatic nerves of rat at 25 mg/kg/day; assay type: functional; details: Sciatic nerve
Rattus norvegicus [27] = assay: In vivo inhibition of galactitol accumulation in diaphragm of rat at 25 mg/kg/day; assay type: functional
Rattus norvegicus [28] = assay: In vivo inhibition of galactitol accumulation in diaphragm of rat at 114 mg/kg/day; Not significant; assay type: functional, organism-based
Rattus norvegicus [29] = assay: In vivo inhibition of galactitol accumulation in sciatic nerves of rat at 114 mg/kg/day; Not significant; assay type: functional, organism-based; details: Sciatic nerve
Rattus norvegicus [30] = assay: In vivo inhibition of galactitol accumulation in sciatic nerves of rat at 105 mg/kg/day; Not significant; assay type: functional, organism-based; details: Sciatic nerve
Rattus norvegicus [31] = assay: In vivo inhibition of galactitol accumulation in diaphragm of rat at 105 mg/kg/day; assay type: functional
Rattus norvegicus [32] = assay: In vivo inhibition of galactitol accumulation in diaphragm of rat at 4 mg/kg/day; assay type: functional
Rattus norvegicus [33] = assay: Effective dose of aldose reductase was evaluated by measuring galactitol accumulation in sciatic nerves of rat at 4 mg/kg/day; assay type: functional; details: Sciatic nerve
Rattus norvegicus [34] = assay: In vivo inhibition of galactitol accumulation in sciatic nerves of rat at 4 mg/kg/day; assay type: functional; details: Sciatic nerve
Rattus norvegicus [35] = species on record: Rattus norvegicus; assay: as §1; assay type: functional; details: Sciatic nerve
Rattus norvegicus [36] = species on record: Rattus norvegicus; assay: as §2; assay type: functional; details: Sciatic nerve
Rattus norvegicus [37] = assay: In vivo inhibition of galactitol accumulation in sciatic nerves of rat at 144 mg/kg/day; assay type: functional; details: Sciatic nerve
Rattus norvegicus [38] = assay: In vivo inhibition of galactitol accumulation in diaphragm of rat at 144 mg/kg/day; assay type: functional
Rattus norvegicus [39] = assay: In vivo inhibition of galactitol accumulation in diaphragm of rat at 133 mg/kg/day; assay type: functional
Rattus norvegicus [40] = assay: In vivo inhibition of galactitol accumulation in sciatic nerves of rat at 133 mg/kg/day; assay type: functional; details: Sciatic nerve
Rattus norvegicus [41] = assay: In vivo inhibition of galactitol accumulation in sciatic nerves of rat at 22 mg/kg/day; assay type: functional; details: Sciatic nerve
Rattus norvegicus [42] = assay: In vivo inhibition of galactitol accumulation in sciatic nerves of rat at 11 mg/kg/day; assay type: functional; details: Sciatic nerve
Rattus norvegicus [43] = assay: In vivo inhibition of galactitol accumulation in sciatic nerves of rat at 27 mg/kg/day; assay type: functional; details: Sciatic nerve
Rattus norvegicus [44] = assay: In vivo inhibition of galactitol accumulation in diaphragm of rat at 22 mg/kg/day; assay type: functional
[45] = target: Aldo-keto reductase family 1 member B1 (Bos taurus) (UniProt P16116); assay: In vitro % decrease of aldose reductase was measured in isolated partially purified bovine lens preparations at 10e-7 M concentration; Not active
Rattus norvegicus [46] = assay: In vivo inhibition of galactitol accumulation in diaphragm of rat at 27 mg/kg/day; assay type: functional
Rattus norvegicus [47] = assay: In vivo inhibition of galactitol accumulation in diaphragm of rat at 11 mg/kg/day; assay type: functional

Compound: COC(=O)N(CC(=O)O)C(=O)c1c(F)ccc2c(C(F)(F)F)c(OC)ccc12
- ED50 (Rattus norvegicus [1]): 4.8 mg/kg
- IC50 (Rattus norvegicus [2]): 2800 nM
- Inhibition (Rattus norvegicus [3]): 61%
- inhibition in vivo at 10 mg/kg/day (Rattus norvegicus [4]): 61%
- inhibition [5]: 86%
- IC50 [6]: 25 nM
- ED50 (Rattus norvegicus [7]): 3.5 mg/kg
- IC50 (Rattus norvegicus [8]): 340 nM
- ED50 (Rattus norvegicus [9]): 4 mg/kg
- inhibition in vivo at 5 mg/kg/day (Rattus norvegicus [10]): 50%
- inhibition in vivo at 10 mg/kg/day (Rattus norvegicus [11]): 62%
- IC50 (Rattus norvegicus [12]): 19 nM
- inhibition in vivo at 5 mg/kg/day (Rattus norvegicus [13]): 52%
- Inhibition (Rattus norvegicus [14]): 36%

Compound: CCCCc1ccc2c(C(F)(F)F)c(OC)ccc2c1C(=O)N(C)CC(=O)O
- inhibition [5]: 23%
- inhibition (Rattus norvegicus [15]): inactive
- inhibition in vivo at 94 mg/kg/day (Rattus norvegicus [16]): 37%

Compound: COc1ccc2c(C(F)(F)F)c(OC)ccc2c1C(=O)N(C)CC(=O)O
- inhibition (Rattus norvegicus [17]): inactive
- Inhibition (Rattus norvegicus [3]): 48%
- inhibition (Rattus norvegicus [18]): inactive
- inhibition [5]: 62%
- Inhibition (Rattus norvegicus [14]): 33%

Compound: O=C1NC(=O)[C@@]2(CCOc3ccc(F)cc32)N1 [SORBINIL]
- inhibition in vivo at 4 mg/kg/day (Rattus norvegicus [32]): 69%
- ED50 (Rattus norvegicus [33]): 4.2 mg/kg
- Inhibition (Rattus norvegicus [3]): 96%
- inhibition in vivo at 4 mg/kg/day (Rattus norvegicus [34]): 55%
- IC50 (Rattus norvegicus [35]): 2200 nM
- IC50 (Rattus norvegicus [36]): 2200 nM
- Inhibition (Rattus norvegicus [14]): 27%

Compound: COC(=O)CN(C)C(=O)c1c(F)ccc2c(C(F)(F)F)c(OC)ccc12
- inhibition in vivo at 22 mg/kg/day (Rattus norvegicus [41]): 80%
- inhibition in vivo at 11 mg/kg/day (Rattus norvegicus [42]): 29%
- inhibition in vivo at 27 mg/kg/day (Rattus norvegicus [43]): 48%
- inhibition in vivo at 22 mg/kg/day (Rattus norvegicus [44]): 55%
- inhibition [45]: inactive
- inhibition in vivo at 27 mg/kg/day (Rattus norvegicus [46]): 48%
- inhibition in vivo at 11 mg/kg/day (Rattus norvegicus [47]): 34%

Continued, in another order:

- IC50 (Rattus norvegicus [2]): 540 nM
- IC50 (Rattus norvegicus [8]): 1000 nM
- IC50 (Rattus norvegicus [12]): 15 nM
Compound: COc1ccc2c(C(=S)N(C)CC(=O)O)cccc2c1C(F)(F)F [TOLRESTAT]
- inhibition in vivo at 6 mg/kg/day (Rattus norvegicus [19]): 53%
- Inhibition (Rattus norvegicus [3]): 82%
- inhibition in vivo at 6 mg/kg/day (Rattus norvegicus [20]): 80%
- ED50 (Rattus norvegicus [21]): < 2 mg/kg
- ED50 (Rattus norvegicus [22]): 4.8 mg/kg
- ED50 (Rattus norvegicus [23]): 6.4 mg/kg
- Inhibition (Rattus norvegicus [14]): 61%

- inhibition [5]: 72%
Compound: COc1ccc2c(C(=S)N(C)CC(=O)O)cccc2c1Br
- inhibition in vivo at 18 mg/kg/day (Rattus norvegicus [24]): 88%
- inhibition in vivo at 18 mg/kg (Rattus norvegicus [25]): 39%
- inhibition in vivo at 25 mg/kg/day (Rattus norvegicus [26]): 64%
- inhibition in vivo at 25 mg/kg/day (Rattus norvegicus [27]): 90%

- inhibition [5]: 63%
Compound: COc1ccc2c(C(=O)N(C)CC(=O)O)cc(C)cc2c1Br
- inhibition (Rattus norvegicus [28]): inactive
- Inhibition (Rattus norvegicus [3]): 52%
- inhibition (Rattus norvegicus [29]): inactive
- Inhibition (Rattus norvegicus [14]): 20%

- inhibition [5]: 8%
Compound: COc1c(C)cc2c(C(=S)N(C)CC(=O)O)cccc2c1Br
- inhibition in vivo at 10 mg/kg/day (Rattus norvegicus [4]): 54%
- inhibition (Rattus norvegicus [30]): inactive
- inhibition in vivo at 10 mg/kg/day (Rattus norvegicus [11]): 87%
- inhibition in vivo at 105 mg/kg/day (Rattus norvegicus [31]): 34%

- inhibition [5]: 84%
Compound: COc1ccc2c(C(=S)N(C)CC(=O)O)cc(Cc3ccccc3)cc2c1Br
- Inhibition (Rattus norvegicus [3]): 78%
- inhibition in vivo at 144 mg/kg/day (Rattus norvegicus [37]): 46%
- inhibition in vivo at 144 mg/kg/day (Rattus norvegicus [38]): 84%
- Inhibition (Rattus norvegicus [14]): 48%

- inhibition [5]: 81%
Compound: COc1ccc2c(C(=S)N(C)CC(=O)O)cc(-c3ccccc3)cc2c1Br
- inhibition in vivo at 133 mg/kg/day (Rattus norvegicus [39]): 85%
- Inhibition (Rattus norvegicus [3]): 68%
- inhibition in vivo at 133 mg/kg/day (Rattus norvegicus [40]): 58%
- Inhibition (Rattus norvegicus [14]): 30%
